{"source": "ChEMBL document CHEMBL1201862", "about": "“PubChem BioAssay data set” (2004)", "assay_in_all_cases": "DTP human tumour cell line panel, 48 h", "key": {"[1]": {"test_system": "LOX IMVI"}, "[2]": {"test_system": "SK-MEL-5"}, "[3]": {"test_system": "CAKI-1"}, "[4]": {"test_system": "UACC-62"}, "[5]": {"test_system": "OVCAR-3"}, "[6]": {"test_system": "HL-60"}, "[7]": {"test_system": "RPMI-8226"}, "[8]": {"test_system": "HT-29"}, "[9]": {"test_system": "SF-539"}, "[10]": {"test_system": "M19-MEL"}, "[11]": {"test_system": "HOP-92"}, "[12]": {"test_system": "SF-295"}, "[13]": {"test_system": "CCRF-CEM"}, "[14]": {"test_system": "OVCAR-8"}, "[15]": {"test_system": "UO-31"}, "[16]": {"test_system": "SN12C"}, "[17]": {"test_system": "IGROV-1"}, "[18]": {"test_system": "NCI-H226"}, "[19]": {"test_system": "KM12"}, "[20]": {"test_system": "ACHN"}}, "note": "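Values below derive from 48-hour exposures of cells grown in 96-well plates, with endpoints linearly interpolated between the two concentrations bracketing the appropriate inhibition level. GI50 = concentration required for 50% inhibition of growth.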 Activity calls are given as the source filed them. Rule as the data show it: active = GI50 up to about 1.1 µM and inactive = higher."}
{"smiles": "Cc1cc(C)c(C2=NO[C@@H]3[C@H]2C(=O)C=C2N(Cc4ccccc4)CCO[C@@]23O)c(C)c1", "values": [{"measurement": "GI50", "setting": "[1]", "result": "> 100 µM (inactive)"}, {"measurement": "GI50", "setting": "[2]", "result": "> 100 µM (inactive)"}, {"measurement": "GI50", "setting": "[3]", "result": "1 µM (active)"}, {"measurement": "GI50", "setting": "[4]", "result": "> 100 µM (inactive)"}, {"measurement": "GI50", "setting": "[5]", "result": "> 100 µM (inactive)"}, {"measurement": "GI50", "setting": "[6]", "result": "> 100 µM (inactive)"}, {"measurement": "GI50", "setting": "[7]", "result": "> 100 µM (inactive)"}, {"measurement": "GI50", "setting": "[8]", "result": "> 100 µM (inactive)"}, {"measurement": "GI50", "setting": "[9]", "result": "> 100 µM (inactive)"}, {"measurement": "GI50", "setting": "[10]", "result": "> 100 µM (inactive)"}, {"measurement": "GI50", "setting": "[11]", "result": "> 100 µM (inactive)"}, {"measurement": "GI50", "setting": "[12]", "result": "> 100 µM (inactive)"}, {"measurement": "GI50", "setting": "[13]", "result": "> 100 µM (inactive)"}, {"measurement": "GI50", "setting": "[14]", "result": "> 100 µM (inactive)"}, {"measurement": "GI50", "setting": "[15]", "result": "> 100 µM (inactive)"}, {"measurement": "GI50", "setting": "[16]", "result": "> 100 µM (inactive)"}, {"measurement": "GI50", "setting": "[17]", "result": "> 100 µM (inactive)"}, {"measurement": "GI50", "setting": "[18]", "result": "> 100 µM (inactive)"}, {"measurement": "GI50", "setting": "[19]", "result": "> 100 µM (inactive)"}]}
{"smiles": "OCC1C2C=CC(O2)[C@H]1CO", "note": "(some centres not stated)", "values": [{"measurement": "GI50", "setting": "[1]", "result": "> 100 µM (inactive)"}, {"measurement": "GI50", "setting": "[2]", "result": "> 100 µM (inactive)"}, {"measurement": "GI50", "setting": "[3]", "result": "> 100 µM (inactive)"}, {"measurement": "GI50", "setting": "[4]", "result": "> 100 µM (inactive)"}, {"measurement": "GI50", "setting": "[5]", "result": "> 100 µM (inactive)"}, {"measurement": "GI50", "setting": "[6]", "result": "> 100 µM (inactive)"}, {"measurement": "GI50", "setting": "[7]", "result": "> 100 µM (inactive)"}, {"measurement": "GI50", "setting": "[8]", "result": "79.6 µM (inactive)"}, {"measurement": "GI50", "setting": "[9]", "result": "> 100 µM (inactive)"}, {"measurement": "GI50", "setting": "[10]", "result": "> 100 µM (inactive)"}, {"measurement": "GI50", "setting": "[11]", "result": "> 100 µM (inactive)"}, {"measurement": "GI50", "setting": "[12]", "result": "> 100 µM (inactive)"}, {"measurement": "GI50", "setting": "[13]", "result": "78.7 µM (inactive)"}, {"measurement": "GI50", "setting": "[14]", "result": "> 100 µM (inactive)"}, {"measurement": "GI50", "setting": "[15]", "result": "> 100 µM (inactive)"}, {"measurement": "GI50", "setting": "[16]", "result": "> 100 µM (inactive)"}, {"measurement": "GI50", "setting": "[20]", "result": "> 100 µM (inactive)"}, {"measurement": "GI50", "setting": "[17]", "result": "> 100 µM (inactive)"}, {"measurement": "GI50", "setting": "[18]", "result": "> 100 µM (inactive)"}, {"measurement": "GI50", "setting": "[19]", "result": "> 100 µM (inactive)"}]}
{"smiles": "CCOCc1cc(=O)c2c(O)cc3c(c2o1)CCC(C)(C)O3", "values": [{"measurement": "GI50", "setting": "[1]", "result": "> 100 µM (inactive)"}, {"measurement": "GI50", "setting": "[2]", "result": "> 100 µM (inactive)"}, {"measurement": "GI50", "setting": "[3]", "result": "> 100 µM (inactive)"}, {"measurement": "GI50", "setting": "[4]", "result": "> 100 µM (inactive)"}, {"measurement": "GI50", "setting": "[5]", "result": "> 100 µM (inactive)"}, {"measurement": "GI50", "setting": "[6]", "result": "> 100 µM (inactive)"}, {"measurement": "GI50", "setting": "[7]", "result": "> 100 µM (inactive)"}, {"measurement": "GI50", "setting": "[8]", "result": "> 100 µM (inactive)"}, {"measurement": "GI50", "setting": "[9]", "result": "> 100 µM (inactive)"}, {"measurement": "GI50", "setting": "[10]", "result": "> 100 µM (inactive)"}, {"measurement": "GI50", "setting": "[11]", "result": "4.86 µM (inactive)"}, {"measurement": "GI50", "setting": "[12]", "result": "> 100 µM (inactive)"}, {"measurement": "GI50", "setting": "[13]", "result": "> 100 µM (inactive)"}, {"measurement": "GI50", "setting": "[14]", "result": "> 100 µM (inactive)"}, {"measurement": "GI50", "setting": "[15]", "result": "> 100 µM (inactive)"}, {"measurement": "GI50", "setting": "[16]", "result": "> 100 µM (inactive)"}, {"measurement": "GI50", "setting": "[20]", "result": "> 100 µM (inactive)"}, {"measurement": "GI50", "setting": "[17]", "result": "> 100 µM (inactive)"}, {"measurement": "GI50", "setting": "[18]", "result": "> 100 µM (inactive)"}]}
{"smiles": "CN(C)CCNC(=O)c1ccc(Cl)c2ccc(-c3ccccc3)nc12", "values": [{"measurement": "GI50", "setting": "[1]", "result": "2.34 µM (inactive)"}, {"measurement": "GI50", "setting": "[2]", "result": "1.95 µM (inactive)"}, {"measurement": "GI50", "setting": "[3]", "result": "2.69 µM (inactive)"}, {"measurement": "GI50", "setting": "[4]", "result": "2.69 µM (inactive)"}, {"measurement": "GI50", "setting": "[5]", "result": "5.4 µM (inactive)"}, {"measurement": "GI50", "setting": "[6]", "result": "2.58 µM (inactive)"}, {"measurement": "GI50", "setting": "[7]", "result": "2.51 µM (inactive)"}, {"measurement": "GI50", "setting": "[8]", "result": "2.77 µM (inactive)"}, {"measurement": "GI50", "setting": "[9]", "result": "3.66 µM (inactive)"}, {"measurement": "GI50", "setting": "[10]", "result": "3.69 µM (inactive)"}, {"measurement": "GI50", "setting": "[11]", "result": "2.02 µM (inactive)"}, {"measurement": "GI50", "setting": "[12]", "result": "2.96 µM (inactive)"}, {"measurement": "GI50", "setting": "[13]", "result": "2.16 µM (inactive)"}, {"measurement": "GI50", "setting": "[14]", "result": "2.57 µM (inactive)"}, {"measurement": "GI50", "setting": "[15]", "result": "1.77 µM (inactive)"}, {"measurement": "GI50", "setting": "[16]", "result": "3.85 µM (inactive)"}, {"measurement": "GI50", "setting": "[17]", "result": "3.48 µM (inactive)"}, {"measurement": "GI50", "setting": "[18]", "result": "2.32 µM (inactive)"}, {"measurement": "GI50", "setting": "[19]", "result": "4.47 µM (inactive)"}]}
